Patent publication US10006912B2, “Peptides for diagnosing lyme disease” (B[…]., priority 2013, dated 2018)

Experiments:
[1] = tested on: IgM in sera containing antibodies against B. burgdorferi proteins; assay: Epitope mapping of DbpB overlapping peptide library, IgM binding; set-up: species or system human; details: 8 high titer Lyme disease patient sera; 20-AA library peptides of DbpB, B. burgdorferi B31
Experimental: (§1) Epitope mapping of full-length DbpB was performed by ArrayIt, Corp. (Sunnyvale, Calif.). Briefly, an overlapping peptide library consisting of 20-AA long peptides overlapping by 15-AA (offset by 5-AA) was generated using the sequence for DbpB from B. burgdorferi B31 (Accession #AAC66244). The sequence submitted for mapping lacked the first 8 AA. The library was exposed to 8 sera containing antibodies against B. burgdorferi proteins, as determined by commercial Lyme immunostrips (Viramed Biotech AG, Planegg, Germany). IgM and IgG binding were independently evaluated, and data were reported in terms of fluorescent binding intensity. Peptides generated from epitope mapping data were produced by Lifetein, Inc (South Plainfield, N.J.). […]
(§2) Linear epitope mapping of DbpB was accomplished by probing overlapping peptide libraries containing full length sequences derived from the B31 strain of B. burgdorferi sensu stricto, with serum obtained from 8 Lyme disease patients with high levels of anti-Borrelia antibody as determined using commercially available Lyme disease immunoblot strips. […]

[2] = tested on: IgG in sera containing antibodies against B. burgdorferi proteins; assay: Epitope mapping of DbpB overlapping peptide library, IgG binding; set-up: species or system human; details: 8 high titer Lyme disease patient sera; 20-AA library peptides of DbpB, B. burgdorferi B31
Experimental: as §1, §2

Row | Substance | samples in which the peptide was bound by IgM [1] | samples in which the peptide was bound by IgG [2]
1 | DbpB(38-57): 20-AA library peptide of DbpB from B. burgdorferi B31; one of two overlapping peptides forming DbpB(38-67) (KDLKNKILKIKKEATGKGVL) | 100% | –
2 | DbpB(48-67): 20-AA library peptide of DbpB from B. burgdorferi B31; one of two overlapping peptides forming DbpB(38-67) (KKEATGKGVLFEAFTGLKTG) | – | 100%
